Measured values as given in patent US20130136809A1, “7-HYRDROXYFRULLANOLIDE ITS ANALOGS FOR PREVENTION CONTROL AND TREATMENT OF METABOLIC DISORDERS” (LAILA NUTRACEUTICALS, priority 2009, published 2013).

Experiments:
[1] = test system: 3T3-L1 pre-adipocyte cells; test: Pro-lipolytic activity in differentiated adipocytes (free glycerol release); type: cell-based, mouse; conditions: 5 μg/mL; increase in glycerol release
Protocol: The lipolytic activity was assessed in mature adipocytes as per the procedure of Chemicon International, USA, by measuring free glycerol secreted into the culture medium. One hundred thousand 3T3-L1 […] pre-adipocyte cells in Dulbecco's Modified Eagles Medium (DMEM) containing 10% Fetal Bovine Serum (FBS) were taken into each well of a 24-well plate and incubated for 48 h at 37° C. and 5% CO2. The differentiation of pre-adipocyte cells was initiated in a differentiation medium containing 10 µg/ml insulin, 1.0 µM dexamethasone, and 0.5 mM isobutylmethylxanthine (IBMX). The cells were differentiated for 5 days and then the culture medium was removed. The monolayer was washed twice with wash solution (Hank's balanced salt solution), and then 250 µL of incubation solution (Hank's balanced salt solution plus 2% bovine serum albumin) was added to the wells in triplicate in presence or absence of 7-hydroxyfrullanolide or its analogs or the extracts containing 7-HF, and the cells were further incubated for 16 h. To measure lipolysis, 200 μL of free glycerol assay reagent was added to 25 µL of culture supernatants and controls containing glycerol standard. The samples and the controls were incubated for 15 min, and the absorbance was read at 540 nm. A standard curve constructed from the glycerol was used to calculate the concentration of free glycerol in the culture supernatants. The percentage increase in glycerol concentration in the sample solutions compared to the control containing the known concentrations of glycerol corresponds to the percentage acceleration of lipolysis by test compound.

[2] = test system: J774 mouse macrophage cells; test: Lipid accumulation in high glucose induced macrophage cells (in vitro model of atherosclerosis); type: cell-based; conditions: 1 μg/ml; 600 mg/dL glucose, 5 days
Protocol: (§1) Experimental protocol: This was evaluated in glucose induced J774, mouse macrophage cells. Briefly, the cells were cultured in DMEM with 2 mM Glutamine, 100 U/mL penicillin, […] streptomycin and 10% fetal bovine serum (Hyclone, Logan, Utah). Equal number of cells was seeded into 35 mm petri dishes (Corning, USA) one day before the experiment. The culture media was replaced with fresh, glucose free DMEM supplemented with 10% fetal bovine serum. 7-HF was diluted at […] and all cultures were pre-incubated for 2 hours at 5% CO2 at 37° C., and then incubated with 600 mg/dL of glucose for 5 days. Representative photomicrographs showing inhibition of lipid accumulation by 7-HF in high glucose induced macrophage cells of an in vitro model of atherosclerosis are shown in Figure IV. The control culture was supplemented with 100 mg/dL glucose. The cells were harvested and lysed with lysis buffer. Cell lysates were clarified at 14,000 g. Protein concentration was measured by Bradford method.

CD36 [3] = test: Immunoblot of CD36 expression in high glucose induced J774 macrophage cells; type: cell-based, mouse; conditions: 1 μg/ml; 600 mg/dL glucose, 5 days
Protocol: as §1, with “The cells were harvested and lysed with lysis buffer. Cell lysates were clarified at 14,000 g.” left out
Inhibition of CD36 protein expression in high glucose induced J774 macrophage cells in presence or absence of 7-HF was evaluated in immunoblot assay. […] Finally, the specific immuno-reactive bands were developed with West-pico chemiluminescent substrate (Pierce Biotechnology, IL, USA), and the immunoblot images were recorded in a Kodak Image Station (Kodak, USA). Band intensities were calculated densitometrically and normalized with expression of actin in respective samples.

perilipin = test: Immunoblot of perilipin expression in 3T3-L1 adipocytes; type: cell-based, mouse; conditions: 1 ug/ml; normalized with actin
Protocol: (§2) Experimental protocol: Mouse pre-adipocyte 3T3-L1 cells are maintained in Dulbecco's Modified Eagles Medium (DMEM) supplemented with 2 mM glutamine, 4.5 g/L glucose and 10% fetal bovine serum. Equal number of cells was plated in each well of 24-well culture plates. Cells were pre-treated separately with 1 μg/mL 7-hydroxyfrullanolide for 2 h and followed by addition of differentiation medium containing 500 nM insulin, 1.0 μM dexamethasone, and 0.5 mM isobutylmethylxanthine (IBMX) for 48 h. Thereafter, cells were further incubated with post differentiation medium (DMEM containing 100 nM insulin) in presence or absence of 7-HF. […] Protein content was measured in Bradford method by using Coomassie blue dye and cell lysates were stored in aliquots at −80° C. until further use. The modulation of adipocyte differentiation markers such as Peroxisome proliferator-activated receptor gamma (PPARγ), CD36, adipocyte fatty acid binding protein (aP2); and intracellular lipid droplet surface associated protein, perilipin expression were evaluated by immunoblot assay.
(§3) Inhibition of protein expression of biomarker molecules adipocytes in presence or absence of 7-hydroxyfrullanolide (7-HF) was evaluated in immunoblot assay. […] Band intensities were calculated densitometrically and normalized with expression of actin in respective samples.

adiponectin = test: Western immunoblot of adiponectin in 3T3-L1 adipocytes; type: cell-based, mouse; conditions: 1 μg/ml; 3T3-L1 mature adipocytes
Protocol: as §2
Inhibition of protein expression of biomarker molecules adipocytes in presence or absence of 7-hydroxyfrullanolide (7-HF) was evaluated in immunoblot assay. […] Band intensities were calculated densitometrically and normalized with expression of actin in respective samples. […]

aP2 = test: Immunoblot of aP2 expression in 3T3-L1 adipocytes; type: cell-based, mouse; conditions: 1 ug/ml; normalized with actin
Protocol: as §2, §3

ADRP = test: Immunoblot of ADRP expression in 3T3-L1 adipocytes; type: cell-based, mouse; conditions: 1 ug/ml; normalized with actin
Protocol: as §2, §3

human endothelial cells = test: Nitrite assay (Griess reagent), nitric oxide production; type: cell-based; conditions: 0.1, 0.25, 0.50, 1.00 ng/ml; 24 h
Protocol: Equal number (5000 cells) of human endothelial cells was plated in each well of a 96-well cell culture plate. The cells were treated with various concentrations (0.1, 0.25, 0.5 and 1.0 ng/ml) of 7-HF for 24 h. The control cultures received 0.01% (v/v) DMSO as the vehicle. After 24 h, the culture supernatants were collected and mixed with equal volume of Griess reagent [1:1 mixture of NED solution (0.1% N-1-napthylethulenediamine dihydrochloride in water) and Sulfanylamide solution (1% sulfanilamide in 5% phosphoric acid)]. The reaction was allowed for 10 min at room temperature. Finally, the color reaction was read at 550 nm in a micro-plate reader (BioRad, USA). Known concentrations of sodium nitrite were reacted to obtain a standard curve. Modulation of nitrite production in 7-HF treated cultures was quantitatively assessed by extrapolating the absorbance readings obtained from the test samples into the standard plot.

CD36 [4] = test: Immunoblot of CD36 expression in 3T3-L1 adipocytes; type: cell-based, mouse; conditions: 1 ug/ml; normalized with actin
Protocol: as §2, §3

C=C1C(=O)O[C@H]2C3=C(C)CCC[C@]3(C)CC[C@@]12O [7-HF (1), 7-hydroxyfrullanolide]
% acceleration of lipolysis [1]: 47.8%
lipid accumulation in high glucose induced macrophage cells [2]: inhibited lipid accumulation
CD36 levels in high glucose induced macrophage cells (CD36 [3]): reduced back towards their base values
perilipin protein expression (perilipin): down-regulation
adiponectin protein expression (adiponectin): potent upregulation
aP2 protein expression (aP2): down-regulation
ADRP protein expression (ADRP): down-regulation
NO concentration (nitrite) in cell culture supernatant (human endothelial cells): significant and dose dependent increase
CD36 protein expression (CD36 [4]): down-regulation
